Experimental findings from ChEMBL document CHEMBL1124529, “Sodium channel binding and anticonvulsant activities for the enantiomers of a bicyclic 2,4-oxazolidinedione and monocyclic models” (J Med Chem, 1989) are described below.

The structures appear in SMILES notation.

Series [1] has as its target T1, Sodium channel alpha subunits; brain (Types I, II, III) (Rattus norvegicus) (UniProt P04775+P04774+P08104). Kind of series: Displacement of [3H]BTX-B from rat cerebral cortex voltage-gated sodium channel, 0.25 hr after 160 uM. Type of series: tissue-based.
Series [2] in a line: Anticonvulsant activity of the compound,0.5 hr after administration in mice subjected to rotarod toxicity test. Type of series: organism-based. The following applies: mouse, in vivo.
In series [3] the test system is Mus musculus. In words: Anticonvulsant activity of the compound, 0.5 hr after administration in maximal electroshock mice model. The class given is functional.
For series [4], the system named is Mus musculus. Kind of series: Anticonvulsant activity of the compound, 0.5 hr after administration of compound in mice subjected to subcutaneous metrazole challenge (85 mg/kg). Particulars: sc. Type of series: functional.
The species entered for series [5] is Mus musculus. Kind of series: Anticonvulsant activity when mice were subjected to maximal electroshock. Type of series: functional.
The target of series [6] is T1, Sodium channel alpha subunits; brain (Types I, II, III) (Rattus norvegicus). Kind of series: Displacement of [3H]BTX-B from rat cerebral cortex voltage-gated sodium channel, 0.5 hr after 500 uM. Type of series: tissue-based.
Series [7] is described as follows: Anticonvulsant activity of the compound,0.25 h after administration in mice subjected to rotarod toxicity test. The following applies: mouse, in vivo. Type of series: organism-based.
The target in series [8] is T1, Sodium channel alpha subunits; brain (Types I, II, III) (Rattus norvegicus). In words: Displacement of [3H]BTX-B from rat cerebral cortex voltage-gated sodium channel, 0.5 hr after 190 uM. The class given is tissue-based.

T1 sequence (P04775 whole entry, looked up, other chains not shown): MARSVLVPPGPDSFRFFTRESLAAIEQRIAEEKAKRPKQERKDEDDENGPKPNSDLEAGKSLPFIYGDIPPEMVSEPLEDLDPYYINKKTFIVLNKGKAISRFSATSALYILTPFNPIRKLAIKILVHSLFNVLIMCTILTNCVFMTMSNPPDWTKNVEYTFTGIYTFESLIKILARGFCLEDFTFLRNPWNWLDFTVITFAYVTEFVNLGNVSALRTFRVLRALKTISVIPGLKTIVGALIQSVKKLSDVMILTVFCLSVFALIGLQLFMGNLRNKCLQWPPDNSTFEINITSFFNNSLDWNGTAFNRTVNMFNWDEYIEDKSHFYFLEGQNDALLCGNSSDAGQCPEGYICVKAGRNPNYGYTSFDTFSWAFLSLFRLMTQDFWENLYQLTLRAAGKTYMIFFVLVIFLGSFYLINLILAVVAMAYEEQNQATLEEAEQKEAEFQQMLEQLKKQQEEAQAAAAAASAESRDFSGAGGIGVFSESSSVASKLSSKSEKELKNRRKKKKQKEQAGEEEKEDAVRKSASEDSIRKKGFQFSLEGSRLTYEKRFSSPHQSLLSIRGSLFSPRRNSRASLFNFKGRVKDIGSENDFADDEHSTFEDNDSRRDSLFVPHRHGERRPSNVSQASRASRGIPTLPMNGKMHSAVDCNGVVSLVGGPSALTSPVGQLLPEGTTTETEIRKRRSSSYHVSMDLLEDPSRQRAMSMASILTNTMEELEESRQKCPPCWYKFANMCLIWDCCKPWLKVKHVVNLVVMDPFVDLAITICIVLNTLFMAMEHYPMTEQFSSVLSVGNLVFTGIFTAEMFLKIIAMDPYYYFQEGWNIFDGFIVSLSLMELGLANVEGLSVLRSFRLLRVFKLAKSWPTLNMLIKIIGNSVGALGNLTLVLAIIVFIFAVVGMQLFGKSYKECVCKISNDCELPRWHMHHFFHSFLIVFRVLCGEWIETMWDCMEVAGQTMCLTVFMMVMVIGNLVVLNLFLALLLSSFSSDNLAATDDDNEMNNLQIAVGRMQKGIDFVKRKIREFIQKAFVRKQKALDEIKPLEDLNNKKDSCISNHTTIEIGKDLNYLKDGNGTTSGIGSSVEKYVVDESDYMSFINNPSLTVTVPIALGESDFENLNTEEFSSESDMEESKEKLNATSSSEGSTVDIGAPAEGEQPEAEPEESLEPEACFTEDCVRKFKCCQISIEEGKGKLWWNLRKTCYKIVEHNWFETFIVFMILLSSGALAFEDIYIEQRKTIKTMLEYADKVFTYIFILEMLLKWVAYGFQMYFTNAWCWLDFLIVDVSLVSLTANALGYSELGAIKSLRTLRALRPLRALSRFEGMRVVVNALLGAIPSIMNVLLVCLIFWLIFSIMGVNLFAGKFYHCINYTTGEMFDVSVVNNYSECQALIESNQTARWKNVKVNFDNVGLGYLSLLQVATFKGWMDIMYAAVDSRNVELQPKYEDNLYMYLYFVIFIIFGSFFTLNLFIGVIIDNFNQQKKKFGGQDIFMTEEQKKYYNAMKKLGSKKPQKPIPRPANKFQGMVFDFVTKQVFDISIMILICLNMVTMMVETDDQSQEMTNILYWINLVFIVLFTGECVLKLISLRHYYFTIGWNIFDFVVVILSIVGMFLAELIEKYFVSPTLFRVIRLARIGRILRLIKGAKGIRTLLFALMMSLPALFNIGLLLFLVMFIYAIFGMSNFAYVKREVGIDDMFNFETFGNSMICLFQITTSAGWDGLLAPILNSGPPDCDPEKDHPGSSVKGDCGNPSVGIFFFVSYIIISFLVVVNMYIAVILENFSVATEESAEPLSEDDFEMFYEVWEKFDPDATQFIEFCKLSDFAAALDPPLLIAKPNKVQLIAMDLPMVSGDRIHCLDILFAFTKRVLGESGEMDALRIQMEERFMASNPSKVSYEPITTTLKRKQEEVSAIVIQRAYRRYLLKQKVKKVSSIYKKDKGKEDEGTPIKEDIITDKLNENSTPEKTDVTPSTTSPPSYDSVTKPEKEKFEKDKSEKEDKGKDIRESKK
T1 sequence (P08104 whole entry, looked up, other chains not shown): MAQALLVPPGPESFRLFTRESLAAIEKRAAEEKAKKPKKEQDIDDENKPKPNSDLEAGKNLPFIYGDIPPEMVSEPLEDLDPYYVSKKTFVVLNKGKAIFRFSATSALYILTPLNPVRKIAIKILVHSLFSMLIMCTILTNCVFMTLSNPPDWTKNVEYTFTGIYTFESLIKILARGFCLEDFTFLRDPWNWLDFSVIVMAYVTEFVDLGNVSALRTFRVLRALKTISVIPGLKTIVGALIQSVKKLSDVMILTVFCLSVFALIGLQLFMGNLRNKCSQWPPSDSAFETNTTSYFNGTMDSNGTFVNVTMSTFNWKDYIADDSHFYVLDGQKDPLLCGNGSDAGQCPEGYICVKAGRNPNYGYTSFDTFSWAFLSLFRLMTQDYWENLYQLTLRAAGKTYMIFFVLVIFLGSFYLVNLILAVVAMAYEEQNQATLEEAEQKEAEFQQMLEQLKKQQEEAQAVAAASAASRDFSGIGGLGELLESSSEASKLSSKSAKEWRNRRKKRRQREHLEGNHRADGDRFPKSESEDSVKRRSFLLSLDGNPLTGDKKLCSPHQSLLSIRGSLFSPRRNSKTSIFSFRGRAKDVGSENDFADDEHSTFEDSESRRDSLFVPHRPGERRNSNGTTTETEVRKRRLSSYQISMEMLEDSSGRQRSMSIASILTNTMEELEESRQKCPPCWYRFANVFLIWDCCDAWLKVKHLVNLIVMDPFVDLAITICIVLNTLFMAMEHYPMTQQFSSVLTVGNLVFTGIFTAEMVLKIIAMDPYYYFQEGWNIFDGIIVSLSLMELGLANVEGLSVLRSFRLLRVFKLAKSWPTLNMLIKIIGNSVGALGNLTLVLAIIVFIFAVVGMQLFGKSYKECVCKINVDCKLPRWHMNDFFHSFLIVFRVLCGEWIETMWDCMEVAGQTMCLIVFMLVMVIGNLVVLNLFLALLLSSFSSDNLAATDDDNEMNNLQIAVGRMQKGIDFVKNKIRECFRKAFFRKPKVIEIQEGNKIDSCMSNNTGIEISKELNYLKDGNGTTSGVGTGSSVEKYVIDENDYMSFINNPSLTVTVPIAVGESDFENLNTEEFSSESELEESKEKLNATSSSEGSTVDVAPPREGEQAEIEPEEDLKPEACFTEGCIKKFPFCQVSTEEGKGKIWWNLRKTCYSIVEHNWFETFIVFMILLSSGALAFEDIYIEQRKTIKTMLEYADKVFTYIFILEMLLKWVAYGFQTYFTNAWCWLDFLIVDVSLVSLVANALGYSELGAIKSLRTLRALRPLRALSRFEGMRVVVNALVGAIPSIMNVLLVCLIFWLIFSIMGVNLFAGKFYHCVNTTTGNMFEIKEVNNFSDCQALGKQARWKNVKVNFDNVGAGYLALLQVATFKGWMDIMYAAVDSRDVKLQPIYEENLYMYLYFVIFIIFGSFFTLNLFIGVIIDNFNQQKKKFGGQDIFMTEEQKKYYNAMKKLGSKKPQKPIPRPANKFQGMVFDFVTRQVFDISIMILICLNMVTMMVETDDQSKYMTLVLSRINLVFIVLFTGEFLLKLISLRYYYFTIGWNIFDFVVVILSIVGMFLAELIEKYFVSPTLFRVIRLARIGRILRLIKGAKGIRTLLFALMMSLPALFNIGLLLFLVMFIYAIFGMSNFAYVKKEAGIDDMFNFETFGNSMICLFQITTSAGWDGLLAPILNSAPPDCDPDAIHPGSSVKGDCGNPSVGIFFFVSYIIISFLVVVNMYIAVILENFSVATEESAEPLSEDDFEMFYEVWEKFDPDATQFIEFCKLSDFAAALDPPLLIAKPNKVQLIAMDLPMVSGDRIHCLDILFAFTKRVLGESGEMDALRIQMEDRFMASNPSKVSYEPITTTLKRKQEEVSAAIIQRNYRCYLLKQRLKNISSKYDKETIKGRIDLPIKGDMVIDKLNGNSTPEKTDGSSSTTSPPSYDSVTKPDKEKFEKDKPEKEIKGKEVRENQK

`O=C1OC2(c3ccccc3)CCCCCN1C2=O` (racemic) showed an inhibition in series [1] of 50%. The same compound returned a TD50 at 0.5 h in series [2] of 147 mg/kg. In addition, the ED50 with Mus musculus [3] was 66 mg/kg; with Mus musculus [4] it was 45 mg/kg.

`CC(=O)N[C@@H](C(=O)NCc1ccccc1)c1ccccc1` had an ED50 in the series listed under Mus musculus [5] of 26 mg/kg.

As to `CCC1(c2ccccc2)OC(=O)NC1=O` (racemic), the inhibition in series [6] is 44%.

As for `O=C1O[C@]2(c3ccccc3)CCCCCN1C2=O`, in series [7], the TD50 at 0.25 h came out at 334 mg/kg. Moreover, the inhibition in series [8] stood at 50%. Further, the values for the ED50 in the series on Mus musculus [3] and in the series on Mus musculus [4] were 82 mg/kg and less than 400 mg/kg, respectively.

Compound `CC[C@@]1(c2ccccc2)OC(=O)N(C)C1=O` came in with a TD50 at 0.5 h in series [2] of 395 mg/kg. Further, in series [6], the inhibition amounted to 45%. The ED50 came to 188 mg/kg with Mus musculus [3] and 64 mg/kg in the series on Mus musculus [4].

In turn, `CC[C@]1(c2ccccc2)OC(=O)N(C)C1=O` gave a TD50 at 0.5 h in series [2] of 354 mg/kg. In series [6], the inhibition turned out to be 49%. Moreover, the ED50 with Mus musculus [3] came out at 122 mg/kg; with Mus musculus [4], 69 mg/kg.

For the compound `CC(=O)N[C@H](C(=O)NCc1ccccc1)c1ccccc1`, the ED50 in the series filed under Mus musculus [5] was more than 300 mg/kg.

In series [2], `CC[C@]1(c2ccccc2)OC(=O)NC1=O` registered a TD50 at 0.5 h of 172 mg/kg. This compound came in with an inhibition in series [6] of 46%. The ED50 in the series on Mus musculus [3] was found to be 91 mg/kg; in the series with Mus musculus [4] it was 108 mg/kg.

Compound `O=C1O[C@@]2(c3ccccc3)CCCCCN1C2=O` returned an inhibition in series [8] of 50%. The same compound came in with a TD50 at 0.5 h in series [2] of 84 mg/kg. The ED50 came to 45 mg/kg in the series with Mus musculus [3] and 50 mg/kg in the series on Mus musculus [4].

For the compound `CC[C@@]1(c2ccccc2)OC(=O)NC1=O`, the TD50 at 0.5 h in series [2] was found to be 155 mg/kg. In series [6], this compound displayed an inhibition of 36%. Also, the ED50 turned out to be 141 mg/kg in the series with Mus musculus [3] and 42 mg/kg in the series on Mus musculus [4].

For the compound `CCC1(c2ccccc2)OC(=O)N(C)C1=O` (racemic), the inhibition in series [6] was 50%. Also, in the series on Mus musculus [3], the 50% effect level (ED50) was put at a dose of 124 mg/kg.
